Holding throughout (assay): Bliss interaction score (quartile over a dose matrix) (fitness difference); higher = more antagonism (negative = synergy)
In one assay the test system is S. pneumoniae D39V. In outline:
(§1)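 The Bliss score is observed minus expected fitness under the product model, reported as quartiles over technical, biological and donor/recipient replicates. Fitness is the OD595 at entry into stationary phase divided by the plate's robust no-drug mean and capped at 1. Single-drug fitness was inferred from combination data.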

For a further assay, the system named is S. aureus Newman. In outline:
as §1

Another assay relates to B. subtilis 168. Put shortly: as §1
A further assay deals with S. aureus DSM 20231. In outline:
as §1
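Note: first quartile when negative (synergy) and third quartile when positive (antagonism).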

On to `CC(=O)O[C@H]1C[C@@]2(C)[C@@H](C[C@@H](O)[C@H]3[C@@]4(C)CC[C@@H](O)[C@@H](C)[C@@H]4CC[C@@]32C)/C1=C(\CCC=C(C)C)C(=O)O` [Fusidic acid] + CN[C@H](CC(C)C)C(=O)N[C@H]1C(=O)N[C@@H](CC(N)=O)C(=O)N[C@H]2C(=O)N[C@H]3C(=O)N[C@H](C(=O)N[C@H](C(=O)O)c4cc(O)cc(O)c4-c4cc3ccc4O)[C@H](O[C@H]3C[C@](C)(N)[C@@H](O)[C@H](C)O3)c3ccc(c(Cl)c3)Oc3cc2cc(c3O[C@@H]2O[C@H](CO)[C@@H](O)[C@H](O)[C@H]2O[C@H]2C[C@](C)(NCc3ccc(-c4ccc(Cl)cc4)cc3)[C@@H](O)[C@H](C)O2)Oc2ccc(cc2Cl)[C@H]1O [Oritavancin], for which the Bliss interaction score was 0.0765 with S. pneumoniae D39V, 0.0249 with S. aureus Newman, 0.0477 in the assay on B. subtilis 168 and 0.0159 with S. aureus DSM 20231.
The like results for `CC(=O)O[C@H]1C[C@@]2(C)[C@@H](C[C@@H](O)[C@H]3[C@@]4(C)CC[C@@H](O)[C@@H](C)[C@@H]4CC[C@@]32C)/C1=C(\CCC=C(C)C)C(=O)O` [Fusidic acid] + CO[C@@H]1[C@@H](OC(N)=O)[C@@H](O)[C@H](Oc2ccc3c(O)c(NC(=O)c4ccc(O)c(CC=C(C)C)c4)c(=O)oc3c2C)OC1(C)C [Novobiocin] were, in that order, -0.153, 0.0521, 0.0723 and 0.0249.
The like results for `CC(=O)O[C@H]1C[C@@]2(C)[C@@H](C[C@@H](O)[C@H]3[C@@]4(C)CC[C@@H](O)[C@@H](C)[C@@H]4CC[C@@]32C)/C1=C(\CCC=C(C)C)C(=O)O` [Fusidic acid] + CO[C@@]12[C@H](COC(N)=O)C3=C(C(=O)C(C)=C(N)C3=O)N1C[C@@H]1N[C@@H]12 [MitomycinC] were, in that order, -0.149, 0.0159, 0.0298 and 0.0263.
For `CC(=O)O[C@H]1C[C@@]2(C)[C@@H](C[C@@H](O)[C@H]3[C@@]4(C)CC[C@@H](O)[C@@H](C)[C@@H]4CC[C@@]32C)/C1=C(\CCC=C(C)C)C(=O)O` [Fusidic acid] + CO[C@H]1/C=C/O[C@@]2(C)Oc3c(C)c(O)c4c(O)c(c(/C=N/N5CCN(C)CC5)c(O)c4c3C2=O)NC(=O)/C(C)=C\C=C\[C@H](C)[C@H](O)[C@@H](C)[C@@H](O)[C@@H](C)[C@H](OC(C)=O)[C@@H]1C [Rifampicin] the same measures were 0.0781, 0.0314, 0.0723 and 0.0497.
In the case of `CC(=O)O[C@H]1C[C@@]2(C)[C@@H](C[C@@H](O)[C@H]3[C@@]4(C)CC[C@@H](O)[C@@H](C)[C@@H]4CC[C@@]32C)/C1=C(\CCC=C(C)C)C(=O)O` [Fusidic acid] + COc1c(N2C[C@@H]3CCCN[C@@H]3C2)c(F)cc2c(=O)c(C(=O)O)cn(C3CC3)c12 [Moxifloxacin], the Bliss interaction score in the assay on S. pneumoniae D39V is 0.048; with S. aureus Newman, 0.0453; in the assay on B. subtilis 168, 0.0398; in the assay with S. aureus DSM 20231, 0.0361.
As to `CC(=O)O[C@H]1C[C@@]2(C)[C@@H](C[C@@H](O)[C@H]3[C@@]4(C)CC[C@@H](O)[C@@H](C)[C@@H]4CC[C@@]32C)/C1=C(\CCC=C(C)C)C(=O)O` [Fusidic acid] + COc1cc(Cc2cnc(N)nc2N)cc(OC)c1OC [Trimethoprim], the Bliss interaction score in the assay with S. pneumoniae D39V is -0.0871; in the assay on S. aureus Newman it was 0.0427; in the assay with B. subtilis 168, 0.112; with S. aureus DSM 20231, 0.0265.
Turning to `CC(=O)O[C@H]1C[C@@]2(C)[C@@H](C[C@@H](O)[C@H]3[C@@]4(C)CC[C@@H](O)[C@@H](C)[C@@H]4CC[C@@]32C)/C1=C(\CCC=C(C)C)C(=O)O` [Fusidic acid] + COc1ccc(C[C@H](N)C(=O)N[C@H]2[C@@H](O)[C@H](n3cnc4c(N(C)C)ncnc43)O[C@@H]2CO)cc1 [Puromycin], the Bliss interaction score in the assay with S. pneumoniae D39V was -0.213; in the assay on S. aureus Newman it was -0.0454; in the assay on B. subtilis 168 it was -0.045; in the assay on S. aureus DSM 20231, 0.0336.
In the case of `CC(=O)O[C@H]1C[C@@]2(C)[C@@H](C[C@@H](O)[C@H]3[C@@]4(C)CC[C@@H](O)[C@@H](C)[C@@H]4CC[C@@]32C)/C1=C(\CCC=C(C)C)C(=O)O` [Fusidic acid] + C[C@@H](O)[C@H]1C(=O)N2C(C(=O)O)=C(SCCNC=N)C[C@H]12 [Imipenem], the Bliss interaction score is 0.0477 with S. pneumoniae D39V, 0.0214 in the assay on S. aureus Newman, 0.138 with B. subtilis 168 and 0.0208 in the assay on S. aureus DSM 20231.
For `CC(=O)O[C@H]1C[C@@]2(C)[C@@H](C[C@@H](O)[C@H]3[C@@]4(C)CC[C@@H](O)[C@@H](C)[C@@H]4CC[C@@]32C)/C1=C(\CCC=C(C)C)C(=O)O` [Fusidic acid] + C[C@H]1COc2c(N3CCN(C)CC3)c(F)cc3c(=O)c(C(=O)O)cn1c23 [Levofloxacin] the same measures were 0.119, 0.0554, 0.034 and 0.0375.
For `CC(=O)O[C@H]1C[C@@]2(C)[C@@H](C[C@@H](O)[C@H]3[C@@]4(C)CC[C@@H](O)[C@@H](C)[C@@H]4CC[C@@]32C)/C1=C(\CCC=C(C)C)C(=O)O` [Fusidic acid] + C[n+]1ccc(-c2cc[n+](C)cc2)cc1 [Paraquat] the same measures were 0.0439, 0.0284, 0.0317 and 0.0328.
For `CC(=O)O[C@H]1C[C@@]2(C)[C@@H](C[C@@H](O)[C@H]3[C@@]4(C)CC[C@@H](O)[C@@H](C)[C@@H]4CC[C@@]32C)/C1=C(\CCC=C(C)C)C(=O)O` [Fusidic acid] + Cc1cc(NS(=O)(=O)c2ccc(N)cc2)no1 [Sulfamethoxazol] the same measures were 0.0975, -0.026, 0.0933 and -0.0234.
As for `CC(=O)O[C@H]1C[C@@]2(C)[C@@H](C[C@@H](O)[C@H]3[C@@]4(C)CC[C@@H](O)[C@@H](C)[C@@H]4CC[C@@]32C)/C1=C(\CCC=C(C)C)C(=O)O` [Fusidic acid] + Cc1ncc([N+](=O)[O-])n1CCO [Metronidazole], the Bliss interaction score with S. pneumoniae D39V is 0.133; in the assay with S. aureus Newman it was -0.0202; in the assay with B. subtilis 168, 0.0703; in the assay with S. aureus DSM 20231, -0.0408.
For `CC(=O)O[C@H]1C[C@@]2(C)[C@@H](C[C@@H](O)[C@H]3[C@@]4(C)CC[C@@H](O)[C@@H](C)[C@@H]4CC[C@@]32C)/C1=C(\CCC=C(C)C)C(=O)O` [Fusidic acid] + Cc1onc(-c2ccccc2)c1C(=O)N[C@@H]1C(=O)N2[C@@H]1SC(C)(C)[C@@H]2C(=O)O [Oxacillin] the same measures were 0.152, 0.0784, 0.0607 and 0.044.

Values taken from the supplement of paper PMC10627819.
